Assay [1] relates to E. coli CSH(RE45). In words: microbe, parasite or virus in culture. The format is cell-based. The settings on record: Escherichia coli, 16 h, read-out: Minimum Inhibitory Concentration (MIC), *E. coli CSH(RE45), lactamase-producing strain; 10^6 CFU/ml. The method, boiled down: (§1)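 Each organism, pre-grown overnight in Mueller Hinton broth, is inoculated at 10^6 CFU/ml onto Mueller Hinton agar series with increasing compound concentration; growth inhibition is scored after 16 h, 37° C., giving MIC (μg/ml).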

Assay [2] concerns E. coli CSH2 (RK1). Kind of assay: microbe, parasite or virus in culture. Format: cell-based. Conditions: Escherichia coli, 16 h, read-out: Minimum Inhibitory Concentration (MIC), *E. coli CSH2 (RK1), lactamase-producing strain; 10^6 CFU/ml. The method, boiled down: as §1
The test system of assay [3] is E. cloacae 963. Kind of assay: in vitro antibacterial activity, agar plate dilution method (MIC). Format: cell-based. Conditions: Enterobacter cloacae, 963, 16 h, read-out: Minimum Inhibitory Concentration (MIC), E. cloacae 963; 10^6 CFU/ml. The method, boiled down:
as §1

The subject of assay [4] is E. cloacae Nek 39. The assay is described as above. Format: cell-based. Conditions: Enterobacter cloacae, NEK39, 16 h, read-out: Minimum Inhibitory Concentration (MIC), *E. cloacae Nek 39, lactamase-producing strain; 10^6 CFU/ml. The method, boiled down:
as §1

The subject of assay [5] is E. coli GN5482. Described as above. Format: cell-based. Conditions: Escherichia coli, GN5482, 16 h, read-out: Minimum Inhibitory Concentration (MIC). The method, boiled down:
as §1

Assay [6] concerns E. coli NIHJ JC2. Described as above. The format is cell-based. Conditions: Escherichia coli, NIHJJC2, 16 h, read-out: Minimum Inhibitory Concentration (MIC), E. coli NIHJ JC2, 10^6 CFU/ml, 37° C. The method, boiled down: as §1
The subject of assay [7] is K. oxytoca GN10650. The description is as above. The format is cell-based. Conditions: Klebsiella oxytoca, GN10650, 16 h, read-out: Minimum Inhibitory Concentration (MIC), *K. oxytoca GN10650, lactamase-producing strain; 10^6 CFU/ml. The method, boiled down:
as §1

The subject of assay [8] is K. pneumoniae No. 42. The description is as above. The format is cell-based. The settings on record: Klebsiella pneumoniae, NO.42, 16 h, read-out: Minimum Inhibitory Concentration (MIC), *K. pneumoniae No. 42, lactamase-producing strain; 10^6 CFU/ml. The method, boiled down:
as §1

Assay [9] relates to K. pneumoniae PCI-602. The assay is described as above. The format is cell-based. Conditions: Klebsiella pneumoniae, PCI602, 16 h, read-out: Minimum Inhibitory Concentration (MIC), K. pneumoniae PCI-602; 10^6 CFU/ml. The method, boiled down: as §1
Assay [10] concerns M. morganii GN5407. Described as above. Format: cell-based. The settings on record: Morganella morganii, GN5407, 16 h, read-out: Minimum Inhibitory Concentration (MIC), *M. morganii GN5407, lactamase-producing strain; 10^6 CFU/ml. The method, boiled down: as §1
Assay [11] relates to P. vulgaris HX-19. The assay is described as above. The format is cell-based. Conditions: Proteus vulgaris, HX19, 16 h, read-out: Minimum Inhibitory Concentration (MIC). The method, boiled down: as §1
The test system of assay [12] is P. vulgaris No. 33. The assay is described as above. Format: cell-based. Conditions: Proteus vulgaris, NO.33, 16 h, read-out: Minimum Inhibitory Concentration (MIC), *P. vulgaris No. 33, lactamase-producing strain; 10^6 CFU/ml. The method, boiled down: as §1
In assay [13] the test system is S. aureus 209P NIHJ-JC1. The assay is described as above. Format: cell-based. The settings on record: Staphylococcus aureus, 16 h, S. aureus 209P NIHJ-JC1; 10^6 CFU/ml, 37° C., 16 hours; read-out: Minimum Inhibitory Concentration (MIC). The method, boiled down: as §1
The test system of assay [14] is S. marcescens IAM 1184. Described as above. The format is cell-based. The settings on record: Serratia marcescens, IAM1184, 16 h, S. marcescens IAM 1184; 10^6 CFU/ml; read-out: Minimum Inhibitory Concentration (MIC). The method, boiled down:
as §1

Assay [15] deals with S. marcescens No. 16-2. Described as above. The format is cell-based. The settings on record: Serratia marcescens, NO.162, 16 h, read-out: Minimum Inhibitory Concentration (MIC), *S. marcescens No. 16-2, lactamase-producing strain; 10^6 CFU/ml. The method, boiled down: as §1
For assay [16], the system named is Ps. aeruginosa AK 109. Described as above. Format: cell-based, Pseudomonas aeruginosa. The settings on record: Pseudomonas aeruginosa, AK109, 16 h, read-out: Minimum Inhibitory Concentration (MIC). The method, boiled down: as §1
The test system of assay [17] is Ps. aeruginosa AKR17. The description is as above. Format: cell-based, Pseudomonas aeruginosa. Conditions: Pseudomonas aeruginosa, AKR17, 16 h, read-out: Minimum Inhibitory Concentration (MIC), Ps. aeruginosa AKR17; 10^6 CFU/ml. The method, boiled down:
as §1

The test system of assay [18] is Ps. aeruginosa IF03445. The description is as above. Format: cell-based, Pseudomonas aeruginosa. Conditions: Pseudomonas aeruginosa, IF03445, 16 h, read-out: Minimum Inhibitory Concentration (MIC), Ps. aeruginosa IF03445; 10^6 CFU/ml. The method, boiled down: as §1
Assay [19] relates to Ps. cepacia 23. The description is as above. Format: cell-based, Pseudomonas cepacia. The settings on record: Burkholderia cepacia, 16 h; Ps. cepacia 23; 10^6 CFU/ml; read-out: Minimum Inhibitory Concentration (MIC). The method, boiled down: as §1
The test system of assay [20] is A. calcoaceticus No. 4. The description is as above. Format: cell-based, Acinetobacter calcoaceticus. Conditions: Acinetobacter calcoaceticus, NO.4, 16 h, A. calcoaceticus No. 4; 10^6 CFU/ml; read-out: Minimum Inhibitory Concentration (MIC). The method, boiled down: as §1
Assay [21] relates to Enterobacter cloacae GN 5797. Kind of assay: β-lactamase inducibility. Conditions: antibiotic at 50, 10 and 1 μg/ml; cephaloridine as substrate. Format: cell-based. Here is the method:
The assay method for induction of β-lactamase by β-latam antibiotics was as follows:
The test organism, Enterobacter cloacae GN 5797, was grown overnight in Mueller Hinton broth (Dlfco Laboratories, Detroit, Mich.) at 37° C. The culture was diluted 10-fold into 20 ml of the flesh medium and incubated with shaking at 37° C. After 2 hours of incubation, antibiotics were added to final concentrations of 50 μg/ml, 10 μg/ml and 1 μg/ml, and the incubation was continued. At 1 hour intervals after the addition of antibiotic, 3 ml of sample was taken, and immediately added with 0.1 ml of 50 mM sodium azide. The cells were harvested and washed with 50 mM phosphate buffer (ph 7.0). The cells were suspended in 5 ml of 50 mM phosphate buffer and disrupted with a sonicater in an ice-water bath. The broken cells were centrifuged at 16,500 G for 40 minutes at 4° C., and the resulting supernatant fluid was used as the crude enzyme. β-Lactamase activity was determined by a sopectrophotometric method (Antmicrob. Agents Chemother. 17, 355-358, 1980) with cephaloridine as substrate. The concentration of protein was determined by the method of Lowry (J. Biol. Chem. 193, 265-275, 1951). […] As a representative example, the compound of EXAMPLE 50 was administered to mice by means of subcutaneous administration, and the concentration in the blood was measured.

`CC(C)(O/N=C(\C(=O)N[C@@H]1C(=O)N2C(C(=O)O)=C(CSc3ncc(-c4ccc(O)c(O)c4)o3)CS[C@H]12)c1csc(N)n1)C(=O)O` [Ex. 64, disodium 7β-[2-(2-aminothiazol-4-yl)-2-(1-carboxylate-1-methylethoxyimino)acetamido]-3-[5-(3,4-dihydroxyphenyl)oxazol-2-yl]thiomethyl-3-cephem-4-carboxylate]: the MIC in [1] was found to be 0.025 µg/mL; in assay [2], 0.0125 µg/mL; in assay [3] it was 0.39 µg/mL; in assay [4], 0.2 µg/mL; in assay [5] it was 3.12 µg/mL; in [6], 0.78 µg/mL. The MIC was 0.1 µg/mL in [7]; 0.05 µg/mL in assay [8]; 0.0125 µg/mL in assay [9]; 0.1 µg/mL in [10]; 0.0125 µg/mL in [11]; 0.025 µg/mL in [12]. Besides, the MIC in assay [13] turned out to be 25 µg/mL; in assay [14] it was 0.1 µg/mL; in assay [15], 1.56 µg/mL; in assay [16], 0.39 µg/mL; in assay [17] it was 1.56 µg/mL; in [18] it was 0.78 µg/mL. Besides, the figures for the MIC in [19] and in assay [20] were < 0.006 µg/mL and 0.2 µg/mL, respectively. The β-lactamase inducibility entry in [21] is given as “no substantial β-lactamase-inducing activity was observed”.

These data come from patent publication US5061794A, “Cephalosporin derivatives, and antibacterial agents” (priority 1986, dated 1991).
